Laboratory results from patent US10004786B2 (Zealand Pharma A/S, priority 2009, dated 2018).
Numbered stars: 1 amine (or outer) side, 2 acyl side, 3 side chain; on linkers, the order of the positions; unused ones are H or OH. Square brackets hold non-standard residues; d marks the D form. Side chains are listed from the residue outwards. Peptide text beside a SMILES is read from it. * marks the point of attachment. γGlu = O=C(O)[C@H](CCC(=O)[*:2])N[*:1]; Palmitoyl = CCCCCCCCCCCCCCCC(=O)*; Aib = CC(C)(N)C(=O)O

Columns and labels:
human Glucagon-R = biological target: T1, human Glucagon-R (Homo sapiens, UniProt P47871); experiment: Glucagon receptor efficacy assay (cAMP formation in HEK293 cells expressing human Glucagon-R); format: cell-based; details: Table 1a, HEK293 cells expressing hGlucagonR, read-out: EC50 (nM) GluR
T1 construct: expressed in transfected cells
Procedure: The 5′-end primers additionally encoded a near Kozak consensus sequence to ensure efficient translation.
48 hr after transfection cells were seeded for limited dilution cloning and selected with 1 mg/ml G418 in the culture medium.
On the day of analysis, growth medium was removed and the cells washed once with 200 μl Tyrode buffer. […] The reaction was stopped by addition of 25 μl 0.5 M HCl and incubated on ice for 60 min. The cAMP content was estimated using the FlashPlate® cAMP kit from Perkin-Elmer.
Efficacy of the GluGLP-1 agonists were estimated by exposing cells expressing hGlucagonR and hGLP-1R to the listed acylated compounds at increasing concentrations and measuring the formed cAMP as described in Methods.

GluR = biological target: T2, GluR (Homo sapiens, UniProt P47871); experiment: Hepatocyt cAMP formation (primary human hepatocyts); format: cell-based
T2 construct: Primary human hepatocyts provided by Lonza Walkersvill, Inc; host or cells: primary human hepatocytes
Procedure: Primary human hepatocyts provided by Lonza Walkersvill, Inc. were carefully washed in TB buffer and incubated at 37° C. with peptides dissolved in TB buffer supplemented with 100 μM IBMX and 0.1% casein for 15 minutes. Prior to addition to the cells, the peptide dilutions were pre-warmed to 37° C. The reaction was stopped by addition of 25 μl of ice cold 0.5 M HCl, and the cells were incubated on ice for 60 min. The cAMP content in the wells was determined by adding 25 μl of the acid extracts from the wells to 75 μl sodium acetate buffer, pH 6.2, in 96-well microtiter “FlashPlates” coated with scintillant and anti-cAMP antibodies.
The amount of cAMP produced by the cells was calculated by extrapolation to a cAMP standard curve.
EC50 values were estimated by fitting the cAMP data to the below formula using Sigma Plot: […]

[1] = Food intake in young lean and old obese C57BL/6J mice; format: in vivo; details: s.c. at t=0 h and t=12 h, p<0.05 versus vehicle
Procedure: C57BL/6J mice were on a high fat diet for 11 days and C57BL/6J mice were on a high fat diet for 52 weeks.
3 days before study, the mice were transferred to individual cages and weighed. 4 days before study, they were acclimatized to handling and treatment by daily s.c. injections. On the day before the experiment food was removed at 20:00. […] Immediately after treatment (t=0), pre-weighed food were introduced to the mice and the cumulative food intake was measured by weighing the remaining food after t=1, 2, 4, 8, 12 and 24 hours. After weighing the food and the animals at t=24 h, the mice were sacrificed by cervical dislocation.
Immediately after treatment (t=0), pre-weighed food were introduced to the mice and the cumulative food intake was measured by weighing the remaining food after t=1, 2, 4, 8, 12 and 24 hours.

[2] = Body weight gain in high fat fed C57BL/6J mice (10 days); format: in vivo; details: short term high fat-fed C57BL/6J mice
Procedure: C57Bl/6J male mice, 6 weeks old, were acclimatized in their new environment for 4 weeks with free access to high fat diet (HFD) (D12492, Research Diet Inc., New Brunswick, USA) and water. The animals were injected s.c. with 100 μl vehicle for a period of three days to acclimatize the animals to handling and injections, prior to initiation of peptide treatment. […] Throughout the study, body weights were recorded daily and used to administer the body weight-corrected doses of peptide. All animals were sacrificed on the same day by cervical dislocation.
C57Bl/6J male mice on high fat diet (HFD) were treated (b.i.d.; s.c.) (0.5 and 5 nmol/kg) or vehicle. Body weights were recorded daily and used to administer the body weight-corrected doses of peptide throughout the study. Data are shown as mean±SEM in FIG. 7.

[3] = Pharmacokinetic screening in mouse plasma after subcutaneous administration; format: in vivo; details: sc, mice, 100 nmol/kg s.c., * = only two time points used for calculation
Procedure: Mice were dosed 100 nmol/kg subcutaneously (s.c.). The mice were sacrificed and the blood collected at the following time points; 0.5, 2, 4, 6, 16 and 24 h. Plasma samples were analyzed using protein precipitation, followed by solid phase extraction (SPE) and liquid chromatography mass spectrometry (LC-MS).
Pharmacokinetic profiles were determined for various acylated compounds.

[4] = Liver weight/body weight of C57BL/6J mice treated for 2 weeks; format: in vivo; details: 5 nmol/kg twice daily s.c.
Procedure: Mice were treated twice daily s.c. with Cpd. 1 and Cpd. 11 (at two doses: 0.5 and 5 nmol/kg) or vehicle for 2 weeks. Throughout the study, body weights were recorded daily and used to administer the body weight-corrected doses of peptide. On the day of sacrifice, the liver was exposed, and weighed.

T2 sequence (P47871 26-477): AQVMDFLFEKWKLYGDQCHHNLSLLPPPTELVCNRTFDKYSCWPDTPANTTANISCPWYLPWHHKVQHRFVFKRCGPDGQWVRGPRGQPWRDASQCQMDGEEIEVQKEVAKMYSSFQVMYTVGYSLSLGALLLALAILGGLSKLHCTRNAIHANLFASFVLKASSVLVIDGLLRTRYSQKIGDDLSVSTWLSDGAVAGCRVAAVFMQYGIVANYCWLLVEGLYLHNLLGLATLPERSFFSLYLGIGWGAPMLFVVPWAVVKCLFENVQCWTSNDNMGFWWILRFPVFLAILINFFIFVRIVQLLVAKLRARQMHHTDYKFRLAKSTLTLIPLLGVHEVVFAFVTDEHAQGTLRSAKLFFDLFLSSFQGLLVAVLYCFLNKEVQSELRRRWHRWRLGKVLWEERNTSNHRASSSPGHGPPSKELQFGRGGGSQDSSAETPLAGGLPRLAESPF
T1 sequence (P47871 26-477): as above

With `CCCCCCCCCCCCCCCC(=O)NCCCC(=O)NCCCC[C@H](NC(=O)[C@H](CO)NC(=O)[C@H](CC(=O)O)NC(=O)[C@H](CC(C)C)NC(=O)[C@H](Cc1ccc(O)cc1)NC(=O)[C@H](CCCCN)NC(=O)[C@H](CO)NC(=O)[C@H](Cc1ccc(O)cc1)NC(=O)[C@H](CC(=O)O)NC(=O)[C@H](CO)NC(=O)[C@@H](NC(=O)[C@H](Cc1ccccc1)NC(=O)[C@@H](NC(=O)CNC(=O)[C@H](CCC(N)=O)NC(=O)C(C)(C)NC(=O)[C@@H](N)Cc1c[nH]cn1)[C@@H](C)O)[C@@H](C)O)C(=O)N[C@@H](C)C(=O)N[C@@H](C)C(=O)N[C@@H](Cc1c[nH]cn1)C(=O)N[C@@H](CC(=O)O)C(=O)N[C@@H](Cc1ccccc1)C(=O)N[C@H](C(=O)N[C@@H](CCC(=O)O)C(=O)N[C@@H](Cc1c[nH]c2ccccc12)C(=O)N[C@@H](CC(C)C)C(=O)N[C@@H](CC(C)C)C(=O)N[C@@H](CO)C(=O)N[C@@H](C)C(N)=O)C(C)C` [Compound 27] as the compound, how does the EC50 (human Glucagon-R) read?
The EC50 was 0.147 nM.

With `CCCCCCCCCCCCCCCC(=O)N[C@@H](CCC(=O)NCCCC[C@H](NC(=O)[C@H](C)NC(=O)[C@H](C)NC(=O)[C@H](CCCCN)NC(=O)[C@H](CO)NC(=O)[C@H](CC(=O)O)NC(=O)[C@H](CC(C)C)NC(=O)[C@H](Cc1ccc(O)cc1)NC(=O)[C@H](CCCCN)NC(=O)[C@H](CO)NC(=O)[C@H](Cc1ccc(O)cc1)NC(=O)[C@H](CC(=O)O)NC(=O)[C@H](CO)NC(=O)[C@@H](NC(=O)[C@H](Cc1ccccc1)NC(=O)[C@@H](NC(=O)CNC(=O)[C@H](CCC(N)=O)NC(=O)C(C)(C)NC(=O)[C@@H](N)Cc1c[nH]cn1)[C@@H](C)O)[C@@H](C)O)C(=O)N[C@@H](CC(=O)O)C(=O)N[C@@H](Cc1ccccc1)C(=O)N[C@H](C(=O)N[C@@H](CCC(=O)O)C(=O)N[C@@H](Cc1c[nH]c2ccccc12)C(=O)N[C@@H](CC(C)C)C(=O)N[C@@H](CC(C)C)C(=O)N[C@@H](CO)C(=O)N[C@@H](C)C(N)=O)C(C)C)C(=O)O` [Compound 35] (H-H[Aib]QGTFTSDYSKYLDSKAAK([γGlu-Palmitoyl])DFVEWLLSA-NH2) as the compound, how does the EC50 (human Glucagon-R) read?
The EC50 was 0.18 nM.

With `CCCCCCCCCCCCCCCC(=O)N[C@@H](CCC(=O)NCCCC[C@H](NC(=O)[C@H](CC(C)C)NC(=O)[C@H](CC(C)C)NC(=O)[C@H](Cc1c[nH]c2ccccc12)NC(=O)[C@H](CCC(=O)O)NC(=O)[C@@H](NC(=O)[C@H](Cc1ccccc1)NC(=O)[C@H](CC(=O)O)NC(=O)[C@H](Cc1c[nH]cn1)NC(=O)[C@H](C)NC(=O)[C@H](C)NC(=O)[C@H](CCCCN)NC(=O)[C@H](CO)NC(=O)[C@H](CC(=O)O)NC(=O)[C@H](CC(C)C)NC(=O)[C@H](Cc1ccc(O)cc1)NC(=O)[C@H](CCCCN)NC(=O)[C@H](CO)NC(=O)[C@H](Cc1ccc(O)cc1)NC(=O)[C@H](CC(=O)O)NC(=O)[C@H](CO)NC(=O)[C@@H](NC(=O)[C@H](Cc1ccccc1)NC(=O)[C@@H](NC(=O)CNC(=O)[C@H](CCC(N)=O)NC(=O)C(C)(C)NC(=O)[C@@H](N)Cc1c[nH]cn1)[C@@H](C)O)[C@@H](C)O)C(C)C)C(=O)N[C@@H](C)C(N)=O)C(=O)O` [Compound 37] (H-H[Aib]QGTFTSDYSKYLDSKAAHDFVEWLLK([γGlu-Palmitoyl])A-NH2) as the compound, how does the EC50 (human Glucagon-R) read?
Its EC50 is 0.147 nM.

For `CCCCCCCCCCCCCCCC(=O)N[C@@H](CCC(=O)NCCCC[C@H](NC(=O)[C@H](CO)NC(=O)[C@H](CC(=O)O)NC(=O)[C@H](CC(C)C)NC(=O)[C@H](Cc1ccc(O)cc1)NC(=O)[C@H](CCCCN)NC(=O)[C@H](CO)NC(=O)[C@H](Cc1ccc(O)cc1)NC(=O)[C@H](CC(=O)O)NC(=O)[C@H](CO)NC(=O)[C@@H](NC(=O)[C@H](Cc1ccccc1)NC(=O)[C@@H](NC(=O)CNC(=O)[C@H](CCC(N)=O)NC(=O)C(C)(C)NC(=O)[C@@H](N)Cc1c[nH]cn1)[C@@H](C)O)[C@@H](C)O)C(=O)N[C@@H](C)C(=O)N[C@@H](C)C(=O)N[C@@H](CCC(=O)O)C(=O)N[C@@H](CC(=O)O)C(=O)N[C@@H](Cc1ccccc1)C(=O)N[C@H](C(=O)N[C@@H](CCC(=O)O)C(=O)N[C@@H](Cc1c[nH]c2ccccc12)C(=O)N[C@@H](CC(C)C)C(=O)N[C@@H](CC(C)C)C(=O)N[C@@H](CO)C(=O)N[C@@H](C)C(N)=O)C(C)C)C(=O)O` [Compound 42] (H-H[Aib]QGTFTSDYSKYLDSK([γGlu-Palmitoyl])AAEDFVEWLLSA-NH2), which EC50 (human Glucagon-R) is on record?
Its EC50 is 0.27 nM.

With `CCCCCCCCCCCCCCCC(=O)N[C@@H](CCC(=O)NCCCC[C@H](NC(=O)[C@H](CO)NC(=O)[C@H](CC(=O)O)NC(=O)[C@H](CC(C)C)NC(=O)[C@H](Cc1ccc(O)cc1)NC(=O)[C@H](CCCCN)NC(=O)[C@H](CO)NC(=O)[C@H](Cc1ccc(O)cc1)NC(=O)[C@H](CC(=O)O)NC(=O)[C@H](CO)NC(=O)[C@@H](NC(=O)[C@H](Cc1ccccc1)NC(=O)[C@@H](NC(=O)CNC(=O)[C@H](CCC(N)=O)NC(=O)C(C)(C)NC(=O)[C@@H](N)Cc1c[nH]cn1)[C@@H](C)O)[C@@H](C)O)C(=O)N[C@@H](C)C(=O)N[C@@H](C)C(=O)N[C@@H](Cc1c[nH]cn1)C(=O)N[C@@H](CC(=O)O)C(=O)N[C@@H](Cc1ccccc1)C(=O)N[C@H](C(=O)N[C@@H](CCC(=O)O)C(=O)N[C@@H](Cc1c[nH]c2ccccc12)C(=O)N[C@@H](CC(C)C)C(=O)N[C@@H](CC(C)C)C(=O)N[C@@H](CCC(=O)O)C(=O)N[C@@H](C)C(N)=O)C(C)C)C(=O)O` [Compound 43] (H-H[Aib]QGTFTSDYSKYLDSK([γGlu-Palmitoyl])AAHDFVEWLLEA-NH2) as the compound, how does the EC50 (human Glucagon-R) read?
Its EC50 is 0.12 nM.

For `CCCCCCCCCCCCCCCC(=O)N[C@@H](CCC(=O)NCCCC[C@H](NC(=O)[C@H](C)NC(=O)[C@H](C)NC(=O)[C@H](CCC(N)=O)NC(=O)CNC(=O)[C@H](CCC(=O)O)NC(=O)[C@H](CC(C)C)NC(=O)[C@H](Cc1ccc(O)cc1)NC(=O)[C@H](CO)NC(=O)[C@H](CO)NC(=O)[C@@H](NC(=O)[C@H](CC(=O)O)NC(=O)[C@H](CO)NC(=O)[C@@H](NC(=O)[C@H](Cc1ccccc1)NC(=O)[C@@H](NC(=O)CNC(=O)[C@H](CCC(=O)O)NC(=O)[C@H](C)NC(=O)[C@@H](N)Cc1cnc[nH]1)[C@@H](C)O)[C@@H](C)O)C(C)C)C(=O)N[C@@H](CCC(=O)O)C(=O)N[C@@H](Cc1ccccc1)C(=O)N[C@H](C(=O)N[C@@H](C)C(=O)N[C@@H](Cc1c[nH]c2ccccc12)C(=O)N[C@@H](CC(C)C)C(=O)N[C@H](C(=O)N[C@@H](CCCNC(=N)N)C(=O)NCC(=O)N[C@@H](CCCNC(=N)N)C(=O)NCC(=O)O)C(C)C)[C@@H](C)CC)C(=O)O` [Liraglutide], which “GluR EC50 (nM) (1)” value (GluR; experiment (1)) is on record?
Its value is “∞”.

And the “GluR EC50 (nM) (2)” value (GluR; experiment (2))?
Its value is “∞”.

What about the “GluR EC50 (nM) (log avg)” value (GluR; log average of (1) and (2)) of the same compound?
The value was “∞”.

Which results are given for Exendin-4 [reference compound]?
food intake, old obese mice ([1]; high fat diet for 52 weeks): reduced food intake in all time periods; food intake, young lean mice ([1]; high fat diet for 11 days): reduced food intake during the 0-2, 0-4, 0-8, 0-12 and 0-24 time periods; body weight gain, low dose ([2]; 0.5 nmol/kg b.i.d. s.c.): significantly decreased body weight gain at both doses; body weight gain, high dose ([2]; 5 nmol/kg b.i.d. s.c.): significantly decreased body weight gain at both doses

Which half-life [3] does the source give for “H-HSQGTFTSDYSKYLDSKAAHDFVEWLLRA-NH2 [Compound 1]” here?
Its half-life is 13.8 min.

And the “liver weight/body weight ratio, high dose” value [4]?
The value was “significantly increased”.
